{
  "source": "patent US20260191887A1",
  "about": "“METHODS OF TREATING INFLAMMATION” (THERAPEUTIKOS, INC., priority 2022, published 2026)",
  "key": {"TNFa": {"test_system": "TNFa", "assay": "Serum TNFa ELISA in LPS-induced systemic inflammation in mice", "format": "in vivo, mouse", "conditions": "LPS 10 mg/kg I.P., compound 300 mg/kg I.V.", "method": "(§1) Male C57BL6/J mice (8 to 10-week-old, 20-25 g) purchased from Charles River were used in this study. Mice were kept in the animal facility of the School of Medicine, University of Virginia (UVa). All experimental procedures were approved by the Ethics Committee on Animal Research of Medical School, UVa and are in accordance with the Guidelines of the National Council for Animal Experimentation Control (CONCEA).\n(§2) Moderate endotoxemia by LPS was induced with a single dose (10 mg/Kg, i.p.) of LPS (Escherichia coli 0111:B4, Sigma Chemical Co., St. Louis, MO, United States), 30 min after intravenous injection of NAG or NDX1 or NDX2 or the vehicle (saline). Two doses (200 mg/kg body weight and 300 mg/kg body weight) were tested for NAG, NDX1 and NDX2. Animals without any treatment were used to obtain the baseline data. Six hours after LPS treatment, inflammation assays were performed as described below. A total of 40 animals were randomly divided into 5 groups (8 mice/group): non-treatment (NT); 10 mg/Kg LPS plus saline (LPS); 10 mg/Kg LPS plus NAG (LPS+NAG); 10 mg/Kg LPS plus NDX1 (LPS+NDX1); and 10 mg/Kg LPS plus NDX2 (LPS+NDX2). The experiment was duplicated.\n(§3) TNFa and IL-6 concentrations in the serum were determined using enzyme-linked immunosorbent assay (ELISA) according to the manufacturer's instructions. […] The resultant solutions were read at 450 nm on a microplate reader."}, "IL1β": {"test_system": "IL1β", "assay": "RT-PCR of IL1β mRNA in LPS-activated RAW264.7 macrophages", "format": "cell-based, mouse", "conditions": "LPS 100 ng/mL; NDX1 0.1 mM and 0.5 mM, NAG 0.5 mM, NDX2 0.5 mM; n=4", "method": "(§4) Mouse RAW264.7 macrophage cell line (ATCC; Manassas, VA, USA) was maintained in DMEM culture medium containing 10% FBS and 1% antibiotic mix. For cell treatment, the test drugs at different doses were added to the culture 0.5 h prior to addition of 100 ng/mL LPS (Sigma-Aldrich Co., St Louis, MO, USA) and then cells were co-treated with LPS for 24 hours.\nTotal RNA was purified using an RNeasy kit (QIAGEN Sciences, Valencia, CA) according to the protocol provided by the manufacturer, and was stored at −80° C. Synthesis of cDNA from total RNA and the quantitative PCR were carried out by using the iScript™ cDNA synthesis kit and the iQ™ SYBR Green Supermix kit (Bio-Rad Laboratories, Hercules, CA), respectively. The target genes included iNOS, IL-6 and IL-1β. Gene of 18s ribosomal RNA was used as an internal control. The threshold cycle (CT) value was calculated from amplification plots. Data was analyzed using the 2-ΔΔCT method with 18s rRNA serving as the reference. Gene expression was normalized to the control group in each experiment and represented as fold of change. […]"}, "mouse iNOS": {"test_system": "mouse iNOS", "assay": "Western blot of iNOS expression in LPS-activated RAW264.7 macrophages", "format": "cell-based", "conditions": "LPS 100 ng/mL; NDX1 0.1 and 1 mM, NDX2 and NAG 0.5 and 5 mM", "method": "as §4\n(§5) The cellular proteins were prepared from cells growing on a 6-well plate (approximately 500,000/well) using a commercial cell lysis buffer (Thermo Scientific). Then the protein concentration was determined using the Bradford protein assay kit (Bio-Rad, Hercules, CA, USA). The samples containing 100 μg proteins were run on 10% SDS-polyacrylamide gels at a […] and electro-transferred to nitrocellulose membranes (Thermo Scientific) at a constant voltage of 10 V overnight. […] Using the magic wand tool from the tool palette, the area of each band was selected, and the mean histogram were recorded and then charted. […]"}, "Cox-2": {"test_system": "Cox-2", "assay": "Western blot of Cox-2 expression in LPS-activated RAW264.7 macrophages", "format": "cell-based, mouse", "conditions": "LPS 100 ng/mL; NDX1 0.1 and 1 mM, NDX2 and NAG 0.5 and 5 mM", "method": "as §4, §5"}, "IL-6": {"test_system": "IL-6", "assay": "Serum IL-6 ELISA in LPS-induced systemic inflammation in mice", "format": "in vivo, mouse", "conditions": "LPS 10 mg/kg I.P., compound 300 mg/kg I.V.", "method": "as §1, §2, §3"}, "[1]": {"test_system": "leukocytes migration to the peritoneal cavity", "assay": "Leukocyte migration to the peritoneal cavity in LPS-induced systemic inflammation in mice", "format": "in vivo, mouse", "conditions": "LPS 10 mg/kg I.P., compound 200 or 300 mg/kg I.V., vs LPS alone", "method": "as §1, §2\nPeritoneal cells were collected by lavage with ice-cold Dulbecco's modified Eagle's medium (DMEM, Gibco BRL, Gaithersburg, MD). […]"}},
  "data": [
    {"smiles": "CC(=O)N[C@H]1C(O)O[C@H](CO)[C@@H](O)[C@@H]1O", "note": "(stereo partly drawn) [NAG, N-acetyl glucosamine]", "values": [
      {"measurement": "decrease of serum level of TNFa", "setting": "TNFa", "value": "significantly decrease serum levels"},
      {"measurement": "inhibition of IL1β mRNA expression (RT-PCR)", "setting": "IL1β", "value": "could inhibit IL1β"},
      {"measurement": "rank order for inhibition of iNOS expression (western blot)", "setting": "mouse iNOS", "value": "NDX1>NDX2>NAG"},
      {"measurement": "rank order for inhibition of Cox-2 expression (western blot)", "setting": "Cox-2", "value": "NAG>NDX2>NDX1"},
      {"measurement": "decrease of serum level of IL-6", "setting": "IL-6", "value": "significantly decrease serum levels"},
      {"measurement": "decrease of leukocytes migration to the peritoneal cavity (WST-1 test or DAPI staining)", "setting": "[1]", "value": "neither NAG nor NDX2 did"}
    ]}
  ]
}
